Our source for the Km and Kd values is patent publication US5668001A, “3-hydroxy-3-methyl-glutaryl-coa synthase preparation with improved stability” (MCW Research Foundation, Inc., priority 1994, dated 1997).

Like-named read-outs stand apart in the source and are kept apart here.

Series [1] has as its system native avian liver HMG-CoA synthase (liver enzyme). Particulars: read-out: Km AcCoA (Hydrolase Rxn.), absence of acetoacetyl-CoA; cited from earlier work.
Series [2] has the same test system. The settings on record: read-out: Km AcCoA (Overall Rxn.), apparent value, in presence of 20 μM acetoacetylCoA; cited from earlier work.
The target in series [3] is T1, recombinant avian cytosolic HMG-CoA synthase (wild type, alanine replacing proline at residue 2; SEQ ID NO:2) expressed in E. coli (Gallus gallus, UniProt P23228, P2A).
T1 construct: Isolation of full length cDNA encoding avian HMG-CoA synthase from a λgt11 library has been reported; made in house; host or cells: E. coli BL21(DE3), plasmid pACS (pET-3d)
T1 sequence (P23228 2-522 P2A limits assumed): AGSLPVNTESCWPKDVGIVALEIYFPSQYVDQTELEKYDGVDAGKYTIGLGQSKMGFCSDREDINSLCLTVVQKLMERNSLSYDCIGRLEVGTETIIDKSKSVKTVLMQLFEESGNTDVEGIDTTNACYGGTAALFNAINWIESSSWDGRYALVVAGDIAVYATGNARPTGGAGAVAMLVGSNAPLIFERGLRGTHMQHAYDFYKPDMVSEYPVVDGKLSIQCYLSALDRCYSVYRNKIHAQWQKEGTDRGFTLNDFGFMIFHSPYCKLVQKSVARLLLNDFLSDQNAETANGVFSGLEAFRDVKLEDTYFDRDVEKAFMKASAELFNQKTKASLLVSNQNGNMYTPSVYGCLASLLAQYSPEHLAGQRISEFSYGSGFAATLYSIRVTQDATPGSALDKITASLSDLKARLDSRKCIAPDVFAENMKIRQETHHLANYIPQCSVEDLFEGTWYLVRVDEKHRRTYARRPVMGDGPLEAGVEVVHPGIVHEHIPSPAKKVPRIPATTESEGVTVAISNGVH
As to the kind of experiment: R.CoA binding by EPR (Scatchard plot). The settings on record: 50 mM sodium phosphate pH 7.0, ambient temperature. Also on record: species or system avian (chicken). How it is done:
Measurement of R.CoA Binding by EPR. Conventional X-band EPR spectra were recorded using a Varian Century-Line 9-GHz spectrometer. The samples contained variable concentrations of HMG-CoA synthase sites (0-930 μM) in 50 mM sodium phosphate buffer, pH 7.0, and 50 or 150 μM R.CoA. R.CoA bound to HMG-CoA synthase was calculated by comparing the amplitudes of high, center, or low-field lines of sample spectra to the corresponding lines observed with a solution containing an equal concentration of R.CoA in buffer. The data were analyzed (Miziorko et al., (1979) Biochemistry 18, 399-403) by Scatchard plot using linear regression analysis. The spectra were recorded at ambient temperature with a modulation amplitude of 1 G, modulation frequency of 100 KHz and microwave power 5 mW. Field sweep was 100 G and time constant was 0.5 sec. The EPR spectrum of bound R.CoA was obtained at 5 G modulation amplitude and variable gain. Rotational correlation time of the bound spin label was determined using a spectral simulation algorithm (Freed, (1976) Spin Labeling: Theory and Applications (L. Berliner, ed.) 1, 53-132; Schneider, et al. (1989) Biological Magnetic Resonance 8, 1-76).

Substrate in series [4]: CC(=O)SCCNC(=O)CCNC(=O)[C@H](O)C(C)(C)COP(=O)(O)OP(=O)(O)OC[C@H]1O[C@@H](n2cnc3c(N)ncnc32)[C@H](O)[C@@H]1OP(=O)(O)O
The series can be described thus: purified protein, by the assay type. The settings on record: other: recombinant enzyme.

What is called Km is the substrate concentration at which the rate is half of its maximum. Turning to `CC(=O)SCCNC(=O)CCNC(=O)[C@H](O)C(C)(C)COP(=O)(O)OP(=O)(O)OC[C@H]1O[C@@H](n2cnc3c(N)ncnc32)[C@H](O)[C@@H]1OP(=O)(O)O` [AcCoA, acetyl-CoA], the Km in series [1] is 14 µM; in series [2] it was 300 µM.
What is called Kd is the concentration at which binding is half-saturated. As for `CC(C)(COP(=O)(O)OP(=O)(O)OC[C@H]1O[C@@H](n2cnc3c(N)ncnc32)[C@H](O)[C@@H]1OP(=O)(O)O)[C@@H](O)C(=O)NCCC(=O)NCCSC(=O)C1CC(C)(C)N([O])C1(C)C` (some centres unmarked) [R.CoA], the Kd in series [3] stood at 102 µM.

B1: recombinant avian cytosolic HMG-CoA synthase (wild type, alanine replacing proline at residue 2; SEQ ID NO:2) expressed in E. coli (Gallus gallus; P2A) (protein)
chain: AGSLPVNTESCWPKDVGIVALEIYFPSQYVDQTELEKYDGVDAGKYTIGLGQSKMGFCSDREDINSLCLTVVQKLMERNSLSYDCIGRLEVGTETIIDKSKSVKTVLMQLFEESGNTDVEGIDTTNACYGGTAALFNAINWIESSSWDGRYALVVAGDIAVYATGNARPTGGAGAVAMLVGSNAPLIFERGLRGTHMQHAYDFYKPDMVSEYPVVDGKLSIQCYLSALDRCYSVYRNKIHAQWQKEGTDRGFTLNDFGFMIFHSPYCKLVQKSVARLLLNDFLSDQNAETANGVFSGLEAFRDVKLEDTYFDRDVEKAFMKASAELFNQKTKASLLVSNQNGNMYTPSVYGCLASLLAQYSPEHLAGQRISEFSYGSGFAATLYSIRVTQDATPGSALDKITASLSDLKARLDSRKCIAPDVFAENMKIRQETHHLANYIPQCSVEDLFEGTWYLVRVDEKHRRTYARRPVMGDGPLEAGVEVVHPGIVHEHIPSPAKKVPRIPATTESEGVTVAISNGVH
In the case of B1, the Km in series [4] (absence of acetoacetyl-CoA, pH 8.0, 30° C., pH 8.0) was determined as 12 µM; in series [4] (apparent value, in presence of 20 μM acetoacetylCoA, 30° C., pH 8.2, pH 8.2), 270 µM.
